The assay concerns mouse model of CMT1A. Nature of the assay: In vivo hind leg force (torque) on sciatic nerve stimulation in mouse model of CMT1A. The procedure:
Male and female mice (Jacson Laboratory Strain #:030052) approx. 6-7 months of age at time of study start were used. These genetically modified mice are used as a disease model to study Charcot Marie Tooth (CMT) disease type 1A (CMT1A).
The sodium salt of NMD670 was dissolved in phosphate buffered saline (PBS) to a dose volume of 1 mg/mL. The entire amount of dose-solution was then transferred to a vial labelled A or B (for blinding purposes). The vehicle control solution was PBS and this was transferred to a vial labelled A or B (for blinding purposes). Compound was dosed IP at a volume of 10 mL/kg, from a 1 mg/mL dose solution.
Animal was sedated (isoflurane inhalation 2% in ambient air) and prepared for assessment of force production from the hind leg, via electrical stimulation of the sciatic nerve in a static position. Stimulation electrodes were inserted at the sciatic nerve, and test pulses of low current amplitude were used to adjust position of all electrodes until a stable reproducible signal was achieved twice. The force resulting from supramaximal electrical stimulation of the supplying motor nerve was recorded from a foot-pad moved by the foot/paw of the animal. See table Table 21 for detailed stimulation protocol.
NMD670 or vehicle was administered by IP injection at a volume of 10 mL/kg from a 1 mg/mL dose solution while sedated in the EMG measurement set up. 10 to 15 minutes was allowed to elapse before next step was initiated.
The animal remained sedated and prepared for assessment of force production from the hind leg, via electrical stimulation of the sciatic nerve in a static position. Stimulation electrodes were inserted at the sciatic nerve, and test pulses of low current amplitude were used to adjust position of all electrodes until a stable reproducible signal was achieved twice. The force resulting from supramaximal electrical stimulation of the supplying motor nerve was recorded from a foot-pad moved by the foot/paw of the animal. See Table 21 for detailed stimulation protocol.
Each mouse was tested prior to intervention with test article, and then tested after IP injection of 10 mg/kg NMD670 or vehicle (PBS). A washout period was then allowed (48 hours), and the mouse was subjected to the same test, but receiving the opposite treatment to that on the first day. All mice thus received both vehicle and NMD670, in a randomized order (FIG. 6).

The record followed here is patent US20260240817A1, “COMPOSITIONS AND METHODS FOR TREATING CHARCOT-MARIE-TOOTH DISEASE” (priority 2023, published 2026).

Take `C[C@H](Oc1ccc(Br)cc1-c1ccon1)C(=O)O` [NMD670, (2S)-2-[4-bromo-2-(1,2-oxazol-3-yl)phenoxy]propanoic acid]: the “ability to sustain force during stimulated contraction” value (10 mg/kg IP, compared to Vehicle) is reported as “markedly improved”. The stimulated force result (10 mg/kg intra peritoneally, compared to vehicle treatment) is “significantly increase”. The “Change in Torque (peak stimulated force, before to after treatment)” value is given as 0.95 mN*m (1 Hz, 10 mg/kg IP, vehicle −0.37); 0.59 mN*m (15 Hz, 10 mg/kg IP, vehicle −0.46); 0.49 mN*m (30 Hz, 10 mg/kg IP, vehicle −0.95); 1.13 mN*m (60 Hz, 10 mg/kg IP, vehicle −1.49); 1.67 mN*m (120 Hz, 10 mg/kg IP, vehicle −1.36); 1.90 mN*m (200 Hz, 10 mg/kg IP, vehicle −1.42). Moreover, the “increase of peak muscle force” value by setting is: (60 Hz, 10 mg/kg IP) 1.13 mNm; (120 Hz, 10 mg/kg IP) 1.67 mNm. Further, the “Change in Fade (before to after treatment)” value (from here on “Change in Fade”) (60 Hz, 10 mg/kg IP, vehicle −1.5) is on record as 2.2%; the “Change in Fade” value (120 Hz, 10 mg/kg IP, vehicle −14.1) came out at 8.1%; the “Change in Fade” value (200 Hz, 10 mg/kg IP, vehicle −24.1) is listed as 18.3%. Besides, under “200 Hz, 10 mg/kg IP”, the “improvement of ability to sustain force” value was 18.3 % point.
